Reference: patent US9751854B2 (Millennium Pharmaceuticals, Inc., priority 2014, dated 2017)

target: human VPS34 (Homo sapiens (Human), UniProt Q8NEB9); assay: Human VPS34 enzyme assay (Adapta TR-FRET ADP detection); format: biochemical; set-up: Percent Inhibition: dose or concentration left out as unconfirmed; details: not given
Sequence (Q8NEB9 whole entry): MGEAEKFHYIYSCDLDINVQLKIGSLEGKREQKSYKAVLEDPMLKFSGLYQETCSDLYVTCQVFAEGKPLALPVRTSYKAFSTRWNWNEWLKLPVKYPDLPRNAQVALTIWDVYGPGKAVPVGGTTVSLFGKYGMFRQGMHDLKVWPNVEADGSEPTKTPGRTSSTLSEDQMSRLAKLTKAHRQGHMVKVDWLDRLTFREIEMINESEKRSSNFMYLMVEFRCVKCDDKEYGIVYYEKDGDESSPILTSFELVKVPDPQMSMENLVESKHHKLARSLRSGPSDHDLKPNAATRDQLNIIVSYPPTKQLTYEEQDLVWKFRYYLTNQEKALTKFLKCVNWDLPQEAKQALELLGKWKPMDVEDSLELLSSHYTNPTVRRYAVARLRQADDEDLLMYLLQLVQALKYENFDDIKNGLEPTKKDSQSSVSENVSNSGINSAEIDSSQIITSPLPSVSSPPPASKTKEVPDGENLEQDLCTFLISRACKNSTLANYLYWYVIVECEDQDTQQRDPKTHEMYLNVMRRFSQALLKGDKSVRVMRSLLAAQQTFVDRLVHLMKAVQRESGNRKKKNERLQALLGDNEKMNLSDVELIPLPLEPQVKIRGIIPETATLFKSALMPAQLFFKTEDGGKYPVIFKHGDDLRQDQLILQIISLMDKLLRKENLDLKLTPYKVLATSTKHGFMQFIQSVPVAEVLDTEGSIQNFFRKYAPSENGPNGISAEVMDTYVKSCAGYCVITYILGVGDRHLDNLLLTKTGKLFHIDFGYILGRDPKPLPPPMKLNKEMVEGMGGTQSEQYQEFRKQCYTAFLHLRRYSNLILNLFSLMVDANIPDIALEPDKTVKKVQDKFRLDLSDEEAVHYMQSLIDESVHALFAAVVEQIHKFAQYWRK

Row | Percent Inhibition [%] | SMILES
1 | 91 | Cc1c(-c2ccnc(N)c2)cnc(Cl)c1NS(=O)(=O)c1ccc(F)cc1F [Compound I-287, N′-(2′-amino-6-chloro-4-methyl-3,4′-bipyridin-5-yl)-2,4-difluorobenzenesulfonamide]

same assay, conditions: IC50 range class

Row | IC50 [nM] | SMILES
2 | 10 to 50 | Cc1nccc(Nc2cc(-c3cncc(C(=O)N4CC(F)(F)C4)c3)ccn2)n1 [Compound I-408, (3,3-difluoroazetidin-1-yl){2′-[(2-methylpyrimidin-4-yl)amino]-3,4′-bipyridin-5-yl}methanone]
3 | 10 to 50 | COc1ncc(-c2ccnc(NC(C)=O)c2)cc1S(=O)(=O)Nc1ccc(Cl)cc1Cl [Compound I-344]
4 | 10 to 50 | CN(C(=O)c1cc(-c2ccnc(Nc3ccncn3)c2)cnc1N)C12CC(C1)C2 [Compound I-303, 6-amino-N-(bicyclo[1.1.1]pent-1-yl)-N-methyl-2′-(pyrimidin-4-ylamino)-3,4′-bipyridine-5-carboxamide]
5 | 50 to 100 | CCNC(=O)Nc1cc(-c2ccnc(Nc3ccnc(C)n3)c2)cnc1C [Compound I-367, 1-ethyl-3-{6-methyl-2′-[(2-methylpyrimidin-4-yl)amino]-3,4′-bipyridin-5-yl}urea]
6 | 10 to 50 | Cc1nccc(Nc2cc(-c3cnc(N(C)C)c(C(=O)N(C)C45CC(C4)C5)c3)ccn2)n1 [Compound I-306, N-(bicyclo[1.1.1]pent-1-yl)-6-(dimethylamino)-N-methyl-2′-((2-methylpyrimidin-4-yl)amino)-3,4′-bipyridine-5-carboxamide]
7 | 50 to 100 | Cc1nccc(Nc2cc(-c3cnc(C)c(NC(=O)N4CC(F)(F)C4)c3)ccn2)n1 [Compound I-482, 3,3-difluoro-N-{6-methyl-2′-[(2-methylpyrimidin-4-yl)amino]-3,4′-bipyridin-5-yl}azetidine-1-carboxamide]
8 | < 10 | Cc1ncc(-c2ccnc(NC(=O)C3CC3(F)F)c2)cc1NS(=O)(=O)c1ccc(Cl)cc1F (stereo not drawn) [Compound I-441, N-(5-{[(4-chloro-2-fluorophenyl)sulfonyl]amino}-6-methyl-3,4′-bipyridin-2′-yl)-2,2-difluorocyclopropanecarboxamide]
9 | 10 to 50 | CC(=O)Nc1cc(-c2cnc(C)c(OS(=O)(=O)N(C)C)c2)ccn1 [Compound I-359, 2′-acetamido-6-methyl-3,4′-bipyridin-5-yl dimethylsulfamate]
10 | > 100 | Cc1ncc(-c2ccnc(-n3cnc4c(C)nccc43)c2)cc1NS(=O)(=O)N(C)C [Compound I-263, N,N-dimethyl-N′-[6-methyl-2′-(4-methyl-1H-imidazol[4,5-c]pyridin-1-yl)-3,4′-bipyridin-5-yl]sulfuric diamide]
11 | < 10 | COc1nc(C)nc(Nc2cc(-c3cnc(C)c(NS(=O)(=O)c4ccc(F)cc4F)c3)ccn2)n1 [Compound I-375, 2,4-difluoro-N-{2′-[(4-methoxy-6-methyl-1,3,5-triazin-2-yl)amino]-6-methyl-3,4′-bipyridin-5-yl}benzenesulfonamide]
12 | < 10 | Cc1c(-c2ccnc(Nc3ccncn3)c2)cnc(Cl)c1NS(=O)(=O)c1ccc(F)cc1F [Compound I-282, N-[6-chloro-4-methyl-2′-(pyrimidin-4-ylamino)-3,4′-bipyridin-5-yl]-2,4-difluorobenzenesulfonamide]
13 | 10 to 50 | CC(=O)Nc1cc(-c2cnc(Cl)c(NS(=O)(=O)c3ccc(C#N)cc3)c2C)ccn1 [Compound I-429, N-(6-chloro-5-{[(4-cyanophenyl)sulfonyl]amino}-4-methyl-3,4′-bipyridin-2′-yl)acetamide]
14 | 10 to 50 | Cc1c(-c2ccnc(Nc3ccnc(C4CC4)n3)c2)cnc(Cl)c1N [Compound I-355, 6-chloro-N-2-′-(2-cyclopropylpyrimidin-4-yl)-4-methyl-3,4′-bipyridine-2′,5-diamine]
15 | 10 to 50 | CC(=O)Nc1cc(-c2cncc(S(=O)(=O)N3CCN(C)CC3)c2)ccn1 [Compound I-481]
16 | 10 to 50 | CC(=O)Nc1cc(-c2cnc(C)c(C(=O)N(C)c3ccc(F)cc3F)c2)ccn1 [Compound I-485, 2′-acetamido-N-(2,4-difluorophenyl)-N,6-dimethyl-3,4′-bipyridine-5-carboxamide]
17 | > 100 | Cc1c(-c2ccnc(N)c2)cnc(Cl)c1NS(=O)(=O)c1ccc(F)cc1F [Compound I-287, N′-(2′-amino-6-chloro-4-methyl-3,4′-bipyridin-5-yl)-2,4-difluorobenzenesulfonamide]
18 | 50 to 100 | CC(=O)Nc1cc(-c2cnc(C)c(NS(=O)(=O)N(C)c3ccccc3)c2)ccn1 [Compound I-494, N-(6-methyl-5-{[methyl(phenyl)sulfamoyl]amino}-3,4′-bipyridin-2′-yl)acetamide]
19 | 10 to 50 | Cc1c(-c2ccnc(Nc3ccnc(C4CC4)n3)c2)cnc(Cl)c1C(=O)N1CC(C)(C)C1 [Compound I-466, (6-chloro-2′-[(2-cyclopropylpyrimidin-4-yl)amino]-4-methyl-3,4′-bipyridin-5-yl](3,3-dimethylazetidin-1-yl)methanone]
20 | 10 to 50 | Cc1nccc(Nc2cc(-c3cnc(C)c(OC4CCCC4)c3)ccn2)n1 [Compound I-471, 5-(cyclopentyloxy)-6-methyl-N-(2-methylpyrimidin-4-yl)-3,4′-bipyridin-2′-amine]

Further lines, the compound ahead of its results:

Row | SMILES | IC50 [nM]
21 | COC(=O)Nc1cc(-c2cnc(N)c(S(=O)(=O)C(C)C)c2)ccn1 [Compound I-34, methyl [6-amino-5-(isopropylsulfonyl)-3,4′-bipyridin-2′-yl]carbamate] | < 10
22 | CC(=O)Nc1cc(-c2cnc(C)c(NS(=O)(=O)c3cc(C(F)(F)F)ccc3F)c2)ccn1 [Compound I-143, N-[5-({[2-fluoro-5-(trifluoromethyl)phenyl]sulfonyl}amino)-6-methyl-3,4′-bipyridin-2′-yl]acetamide] | < 10
23 | COc1ncc(-c2ccnc(Nc3ccnc(C)n3)c2)cc1S(=O)(=O)NC1CCC1 [Compound I-224, N-cyclobutyl-6-methoxy-2′-[(2-methylpyrimidin-4-yl)amino]-3,4′-bipyridine-5-sulfonamide] | 10 to 50
24 | CC(=O)Nc1cc(-c2cncc(N)c2)ccn1 [Compound I-139, N-(5-amino-3,4′-bipyridin-2′-yl)acetamide] | > 100
25 | CC(=O)Nc1cc(-c2cnc(C)c(NS(=O)(=O)c3ccc(C(C)(C)C)cc3)c2)ccn1 [Compound I-131, N-(5-{[(4-tert-butylphenyl)sulfonyl]amino}-6-methyl-3,4′-bipyridin-2′-yl)acetamide] | < 10
26 | CC(=O)Nc1cc(-c2cnc(Cl)c(NS(=O)(=O)c3ccccc3)c2)c(C)cn1 [Compound I-56, N-{6-chloro-5′-methyl-5-[(phenylsulfonyl)amino]-3,4′-bipyridin-2′-yl]acetamide] | 10 to 50
27 | CCN(CC)S(=O)(=O)c1cncc(-c2ccnc(NC(C)=O)c2)c1 [Compound I-120, N-[5-(diethylsulfamoyl)-3,4′-bipyridin-2′-yl]acetamide] | < 10
28 | CC(=O)Nc1cc(-c2cnc(Cl)c(NS(=O)(=O)N(C)C)c2C)ccn1 [Compound I-236, N-{6-chloro-5-[(dimethylsulfamoyl)amino]-4-methyl-3,4′-bipyridin-2′-yl}acetamide] | 10 to 50
29 | COc1cc(F)c(S(=O)(=O)Nc2cc(-c3ccnc(NC(C)=O)c3)cnc2C)cc1F [Compound I-159, N-(5-{[(2,5-difluoro-4-methoxyphenyl)sulfonyl]amino}-6-methyl-3,4′-bipyridin-2′-yl)acetamide] | < 10
30 | COc1cc(F)ccc1S(=O)(=O)Nc1cc(-c2ccnc(NC(C)=O)c2)cnc1C [Compound I-58, N-(5-{[(4-fluoro-2-methoxyphenyl)sulfonyl]amino}-6-methyl-3,4′-bipyridin-2′-yl)acetamide] | < 10
31 | CC(=O)Nc1cc(-c2cnc(N)c(N(C)S(C)(=O)=O)c2)ccn1 [Compound I-133, N-{6-amino-5-[methyl(methylsulfonyl)amino]-3,4′-bipyridin-2′-yl}acetamide] | < 10
32 | CC(=O)Nc1cc(-c2cnc(Cl)c(NS(=O)(=O)c3cc(F)ccc3F)c2C)ccn1 [Compound I-227, N-(6-chloro-5-{[(2,5-difluorophenyl)sulfonyl]amino)-4-methyl-3,4′-bipyridin-2′-yl)acetamide] | 10 to 50
33 | CC(=O)Nc1cc(-c2cnc(Cl)c(NS(=O)(=O)c3ccc(Cl)cc3Cl)c2C)ccn1 [Compound I-243, N-(6-chloro-5-{[(2,4-dichlorophenyl)sulfonyl]amino}-4-methyl-3,4′-bipyridin-2′-yl)acetamide] | 10 to 50
34 | CC(=O)Nc1cc(-c2cnc(NCC3CC3)c(N)c2)ccn1 [Compound I-53, N-{5-amino-6-{(cyclopropylmethyl)amino]-3,4′-bipyridin-2′-yl}acetamide] | > 100
35 | CC(=O)Nc1cc(-c2cncc(S(C)(=O)=O)c2)ccn1 [Compound I-51, N-[5-(methylsulfonyl)-3,4′-bipyridin-2′-yl]acetamide] | 50 to 100
36 | CC(=O)Nc1cc(-c2cnc3cn(S(=O)(=O)C4CC4)nc3c2)ccn1 [Compound I-105, N-{4-[2-(cyclopropylsulfonyl)-2H-pyrazolo[4,3-b]pyridin-6-yl]pyridin-2-yl}acetamide] | > 100
37 | CC(=O)Nc1cc(-c2cnc3ccn(S(=O)(=O)C4CC4)c3c2)ccn1 [Compound I-199, N-{4-[1-(cyclopropylsulfonyl)-1H-pyrrolo[3,2-b]pyridin-6-yl]pyridin-2-yl}acetamide] | < 10
38 | CC(=O)Nc1cc(-c2cnc(C)c(NS(=O)(=O)N(C)C)c2C)ccn1 [Compound I-260, N-{5-[(dimethylsulfamoyl)amino]-4,6-dimethyl-3,4′-bipyridin-2′-yl}acetamide] | 10 to 50
39 | CC(=O)Nc1cc(-c2cnc(N)c(C(=O)NC3CCOCC3)c2)ccn1 [Compound I-210, 2′-acetamido-6-amino-N-(tetrahydro-2H-pyran-4-yl)-3,4′-bipyridine-5-carboxamide] | 50 to 100
40 | COc1nccc(Nc2cc(-c3cnc(Cl)c(NS(=O)(=O)c4ccc(F)cc4F)c3C)ccn2)n1 [Compound I-225, N-{6-chloro-2′-[(2-methoxypyrimidin-4-yl)amino]-4-methyl-3,4′-bipyridin-5-yl}-2,4-difluorobenzenesulfonamide] | < 10
41 | CC(=O)Nc1cc(-c2cncc(S(=O)(=O)N3CCCC3)c2)ccn1 [Compound I-47, N-[5-(pyrrolidin-1-ylsulfonyl)-3,4′-bipyridin-2′-yl]acetamide] | 10 to 50
42 | CNC(=O)c1cc(-c2ccnc(NC(C)=O)c2)cnc1N [Compound I-57, 2′-acetamido-6-amino-N-methyl-3,4′-bipyridine-5-carboxamide] | 10 to 50
